Values of other authors in patent publication US9827328B2, “Combination therapy for treatment of cancer” (UNIVERSITY OF SOUTH ALABAMA, priority 2011, dated 2017).
Read-outs that look alike come from different tables or passages of the source.

Tests used:
[1] = tested on: patients with advanced or metastatic breast cancer; conditions: weekly nab-paclitaxel v every-three week Taxotere
[2] = tested on: patients with metastatic breast cancer

Row | SMILES | rate of grade 4 neutropenia [1] | incidence of hyperglycemia reported as adverse effect ([2]; all patients) | median survival ([2]; all patients) | median time to tumor progression (TTP) ([2]; all patients) | overall response rate (ORR) ([2]; all patients, ITT) | number of patients with persistent grade 3 sensory neuropathy ([2]; by day 28 after first occurrence) | episodes of motor neuropathy or grade 4 sensory neuropathy ([2]; in vivo) | incidence of treatment-related grade 4 neutropenia ([2]; in vivo) | mean neutrophil nadir ([2]; in vivo) | treatment-related grade 3 sensory neuropathy ([2]; in vivo) | severe (grade 3 or 4) treatment-related hypersensitivity reactions ([2]; nab-paclitaxel without premedication, Taxol with standard premedication) | tumor response rate ([2]; patients aged younger than 65 years) | ORR ([2]; patients who received first-line therapy) | ORR ([2]; patients with nonvisceral dominant lesions) | tumor response rate ([2]; patients with visceral dominant lesions) | ORR ([2]; patients ≧65 years old) | ORR ([2]; prior anthracycline therapy, adjuvant/metastatic setting) | ORR ([2]; prior anthracycline therapy, metastatic setting only) | ORR ([2]; second-line or greater therapy) | median survival ([2]; second-line or greater therapy)
1 | CC(=O)O[C@@]12CO[C@@H]1C[C@H](O)[C@@]1(C)C(=O)[C@H](O)C3=C(C)[C@@H](OC(=O)[C@H](O)[C@@H](NC(=O)OC(C)(C)C)c4ccccc4)C[C@@](O)([C@@H](OC(=O)c4ccccc4)[C@H]21)C3(C)C [Taxotere, docetaxel] | 75% |  |  |  |  |  |  |  |  |  |  |  |  |  |  |  |  |  |  | 
2 | CC(=O)O[C@H]1C(=O)[C@@]2(C)[C@H]([C@H](OC(=O)c3ccccc3)[C@]3(O)C[C@H](OC(=O)[C@H](O)[C@@H](NC(=O)c4ccccc4)c4ccccc4)C(C)=C1C3(C)C)[C@]1(OC(C)=O)CO[C@@H]1C[C@@H]2O [Taxol, paclitaxel] |  | 7% | 55.7 weeks | 16.9 weeks | 19% | 4 | No episodes | 22% | 1.31e+09 L⁻¹ | 2% | grade 3 hypersensitivity reactions occurred | 19% | 27% | 19% | 19% | 19% | 18% | 14% | 13% | 46.7 weeks
